# Measured values as given in PubChem BioAssay (NCI).
#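 Protocol summary: plate cells (96-well), add compound at 5 concentrations, incubate 48 h, interpolate endpoints linearly. TGI is the concentration that stops growth completely.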
# Tests used:
# Assay in all cases: growth of human tumour cells (NCI), 48 h
# 786-0 renal = tested on: 786-0 renal
# A498 renal = tested on: A498 renal
# A549 NSCLC = tested on: A549 NSCLC
# ACHN renal = tested on: ACHN renal
# CAKI-1 renal = tested on: CAKI-1 renal
# CCRF-CEM leukemia = tested on: CCRF-CEM leukemia
# COLO 205 colon = tested on: COLO 205 colon
# DLD-1 colon = tested on: DLD-1 colon
# DMS 114 small cell lung = tested on: DMS 114 small cell lung
# DMS 273 small cell lung = tested on: DMS 273 small cell lung
# EKVX NSCLC = tested on: EKVX NSCLC
# HCC-2998 colon = tested on: HCC-2998 colon
# HCT-116 colon = tested on: HCT-116 colon
# HCT-15 colon = tested on: HCT-15 colon
# HL-60(TB) leukemia = tested on: HL-60(TB) leukemia
# HOP-62 NSCLC = tested on: HOP-62 NSCLC
# HT29 colon = tested on: HT29 colon
# IGROV1 ovarian = tested on: IGROV1 ovarian
# K-562 leukemia = tested on: K-562 leukemia
# KM12 colon = tested on: KM12 colon
# KM20L2 colon = tested on: KM20L2 colon
# LOX IMVI melanoma = tested on: LOX IMVI melanoma
# LXFL 529 NSCLC = tested on: LXFL 529 NSCLC
# M14 melanoma = tested on: M14 melanoma
# M19-MEL melanoma = tested on: M19-MEL melanoma
# MALME-3M melanoma = tested on: MALME-3M melanoma
# MOLT-4 leukemia = tested on: MOLT-4 leukemia
# NCI-H460 lung = tested on: NCI-H460 lung
# OVCAR-4 ovarian = tested on: OVCAR-4 ovarian
# OVCAR-8 ovarian = tested on: OVCAR-8 ovarian
# RPMI-8226 leukemia = tested on: RPMI-8226 leukemia
# RXF 393 renal = tested on: RXF 393 renal
# SF-268 CNS = tested on: SF-268 CNS
# SF-295 CNS = tested on: SF-295 CNS
# SF-539 CNS = tested on: SF-539 CNS
# SK-MEL-2 melanoma = tested on: SK-MEL-2 melanoma
# SK-MEL-5 melanoma = tested on: SK-MEL-5 melanoma
# SK-OV-3 ovarian = tested on: SK-OV-3 ovarian
# SN12C renal = tested on: SN12C renal
# SNB-19 CNS = tested on: SNB-19 CNS
# SNB-75 CNS = tested on: SNB-75 CNS
# SR leukemia = tested on: SR leukemia
# SW-620 colon = tested on: SW-620 colon
# TK-10 renal = tested on: TK-10 renal
# U251 CNS = tested on: U251 CNS
# UACC-257 melanoma = tested on: UACC-257 melanoma
# UACC-62 melanoma = tested on: UACC-62 melanoma
# UO-31 renal = tested on: UO-31 renal
# XF 498 CNS = tested on: XF 498 CNS
# HOP-18 NSCLC = tested on: HOP-18 NSCLC
# HOP-92 NSCLC = tested on: HOP-92 NSCLC
# NCI-H226 lung = tested on: NCI-H226 lung
# NCI-H23 lung = tested on: NCI-H23 lung
# NCI-H522 lung = tested on: NCI-H522 lung
# OVCAR-3 ovarian = tested on: OVCAR-3 ovarian
# OVCAR-5 ovarian = tested on: OVCAR-5 ovarian
# SK-MEL-28 melanoma = tested on: SK-MEL-28 melanoma
# SNB-78 CNS = tested on: SNB-78 CNS
structure (smiles),measurement,setting,value
O=c1[nH]c2cc(Cl)ccc2nc1/C(=N\O)C(O)c1ccc([N+](=O)[O-])cc1 (stereo unspecified),TGI,786-0 renal,> 100 µM
same,TGI,A498 renal,> 100 µM
same,TGI,A549 NSCLC,> 100 µM
same,TGI,ACHN renal,> 100 µM
same,TGI,CAKI-1 renal,> 100 µM
same,TGI,CCRF-CEM leukemia,> 100 µM
same,TGI,COLO 205 colon,> 100 µM
same,TGI,DLD-1 colon,> 100 µM
same,TGI,DMS 114 small cell lung,> 100 µM
same,TGI,DMS 273 small cell lung,> 100 µM
same,TGI,EKVX NSCLC,> 100 µM
same,TGI,HCC-2998 colon,> 100 µM
same,TGI,HCT-116 colon,> 100 µM
same,TGI,HCT-15 colon,> 100 µM
same,TGI,HL-60(TB) leukemia,> 100 µM
same,TGI,HOP-62 NSCLC,> 100 µM
same,TGI,HT29 colon,> 100 µM
same,TGI,IGROV1 ovarian,> 100 µM
same,TGI,K-562 leukemia,> 100 µM
same,TGI,KM12 colon,> 100 µM
same,TGI,KM20L2 colon,> 100 µM
same,TGI,LOX IMVI melanoma,> 100 µM
same,TGI,LXFL 529 NSCLC,> 100 µM
same,TGI,M14 melanoma,> 100 µM
same,TGI,M19-MEL melanoma,> 100 µM
same,TGI,MALME-3M melanoma,> 100 µM
same,TGI,MOLT-4 leukemia,> 100 µM
same,TGI,NCI-H460 lung,> 100 µM
same,TGI,OVCAR-4 ovarian,> 100 µM
same,TGI,OVCAR-8 ovarian,> 100 µM
same,TGI,RPMI-8226 leukemia,> 100 µM
same,TGI,RXF 393 renal,> 100 µM
same,TGI,SF-268 CNS,> 100 µM
same,TGI,SF-295 CNS,> 100 µM
same,TGI,SF-539 CNS,> 100 µM
same,TGI,SK-MEL-2 melanoma,> 100 µM
same,TGI,SK-MEL-5 melanoma,> 100 µM
same,TGI,SK-OV-3 ovarian,> 100 µM
same,TGI,SN12C renal,> 100 µM
same,TGI,SNB-19 CNS,> 100 µM
same,TGI,SNB-75 CNS,> 100 µM
same,TGI,SR leukemia,> 100 µM
same,TGI,SW-620 colon,> 100 µM
same,TGI,TK-10 renal,> 100 µM
same,TGI,U251 CNS,> 100 µM
same,TGI,UACC-257 melanoma,> 100 µM
same,TGI,UACC-62 melanoma,> 100 µM
same,TGI,UO-31 renal,> 100 µM
same,TGI,XF 498 CNS,> 100 µM
COc1cc(CNC2c3cc4c(cc3C(c3cc(OC)c(OC)c(OC)c3)[C@H]3C(=O)OCC23)OCO4)cc(OC)c1OC (stereo partly specified),TGI,786-0 renal,> 100 µM
same,TGI,A498 renal,0.762 µM
same,TGI,A549 NSCLC,> 100 µM
same,TGI,ACHN renal,> 100 µM
same,TGI,CCRF-CEM leukemia,40.9 µM
same,TGI,COLO 205 colon,0.37 µM
same,TGI,DLD-1 colon,> 100 µM
same,TGI,DMS 114 small cell lung,0.444 µM
same,TGI,HCC-2998 colon,13.1 µM
same,TGI,HCT-116 colon,0.707 µM
same,TGI,HCT-15 colon,> 100 µM
same,TGI,HL-60(TB) leukemia,0.515 µM
same,TGI,HOP-18 NSCLC,> 100 µM
same,TGI,HOP-62 NSCLC,0.631 µM
same,TGI,HOP-92 NSCLC,> 100 µM
same,TGI,HT29 colon,19.5 µM
same,TGI,IGROV1 ovarian,> 100 µM
same,TGI,K-562 leukemia,> 100 µM
same,TGI,KM12 colon,0.692 µM
same,TGI,KM20L2 colon,0.359 µM
same,TGI,LOX IMVI melanoma,> 100 µM
same,TGI,LXFL 529 NSCLC,> 100 µM
same,TGI,M14 melanoma,> 100 µM
same,TGI,M19-MEL melanoma,> 100 µM
same,TGI,MALME-3M melanoma,> 100 µM
same,TGI,MOLT-4 leukemia,> 100 µM
same,TGI,NCI-H226 lung,0.487 µM
same,TGI,NCI-H23 lung,0.77 µM
same,TGI,NCI-H522 lung,0.262 µM
same,TGI,OVCAR-3 ovarian,> 100 µM
same,TGI,OVCAR-5 ovarian,> 100 µM
same,TGI,RPMI-8226 leukemia,79.2 µM
same,TGI,SF-268 CNS,> 100 µM
same,TGI,SF-295 CNS,0.677 µM
same,TGI,SF-539 CNS,0.403 µM
same,TGI,SK-MEL-2 melanoma,> 100 µM
same,TGI,SK-MEL-5 melanoma,0.538 µM
same,TGI,SK-OV-3 ovarian,> 100 µM
same,TGI,SN12C renal,> 100 µM
same,TGI,SNB-19 CNS,> 100 µM
same,TGI,SNB-75 CNS,> 100 µM
same,TGI,SR leukemia,> 100 µM
same,TGI,SW-620 colon,> 100 µM
same,TGI,TK-10 renal,> 100 µM
same,TGI,UACC-257 melanoma,> 100 µM
same,TGI,UACC-62 melanoma,0.651 µM
same,TGI,UO-31 renal,> 100 µM
same,TGI,XF 498 CNS,8.07 µM
Cc1cc(=O)oc2c(C)c(OCCCOc3ccc4c(C)cc(=O)oc4c3C)ccc12,TGI,786-0 renal,> 100 µM
same,TGI,A498 renal,> 100 µM
same,TGI,A549 NSCLC,> 100 µM
same,TGI,CAKI-1 renal,> 100 µM
same,TGI,CCRF-CEM leukemia,> 100 µM
same,TGI,DLD-1 colon,> 100 µM
same,TGI,DMS 114 small cell lung,> 100 µM
same,TGI,DMS 273 small cell lung,> 100 µM
same,TGI,EKVX NSCLC,> 100 µM
same,TGI,HCT-116 colon,> 100 µM
same,TGI,HCT-15 colon,> 100 µM
same,TGI,HL-60(TB) leukemia,> 100 µM
same,TGI,HOP-18 NSCLC,> 100 µM
same,TGI,HOP-62 NSCLC,> 100 µM
same,TGI,HOP-92 NSCLC,> 100 µM
same,TGI,HT29 colon,> 100 µM
same,TGI,IGROV1 ovarian,> 100 µM
same,TGI,K-562 leukemia,> 100 µM
same,TGI,KM12 colon,> 100 µM
same,TGI,KM20L2 colon,> 100 µM
same,TGI,LOX IMVI melanoma,> 100 µM
same,TGI,LXFL 529 NSCLC,> 100 µM
same,TGI,M14 melanoma,> 100 µM
same,TGI,M19-MEL melanoma,> 100 µM
same,TGI,MALME-3M melanoma,> 100 µM
same,TGI,MOLT-4 leukemia,> 100 µM
same,TGI,NCI-H23 lung,> 100 µM
same,TGI,NCI-H460 lung,> 100 µM
same,TGI,NCI-H522 lung,> 100 µM
same,TGI,OVCAR-3 ovarian,> 100 µM
same,TGI,OVCAR-5 ovarian,> 100 µM
same,TGI,OVCAR-8 ovarian,> 100 µM
same,TGI,RPMI-8226 leukemia,> 100 µM
same,TGI,SF-268 CNS,> 100 µM
same,TGI,SF-295 CNS,> 100 µM
same,TGI,SF-539 CNS,> 100 µM
same,TGI,SK-MEL-2 melanoma,> 100 µM
same,TGI,SK-MEL-28 melanoma,> 100 µM
same,TGI,SK-MEL-5 melanoma,> 100 µM
same,TGI,SK-OV-3 ovarian,> 100 µM
same,TGI,SNB-19 CNS,> 100 µM
same,TGI,SNB-78 CNS,> 100 µM
same,TGI,SR leukemia,> 100 µM
same,TGI,SW-620 colon,> 100 µM
same,TGI,TK-10 renal,> 100 µM
same,TGI,U251 CNS,> 100 µM
same,TGI,UACC-257 melanoma,> 100 µM
same,TGI,UACC-62 melanoma,> 100 µM
same,TGI,UO-31 renal,> 100 µM
same,TGI,XF 498 CNS,> 100 µM
O=C1OC(O)C(Oc2c(Cl)cccc2Cl)=C1Cl (stereo unspecified),TGI,786-0 renal,32.2 µM
same,TGI,A498 renal,51.1 µM
same,TGI,A549 NSCLC,34.7 µM
same,TGI,ACHN renal,42.3 µM
same,TGI,CAKI-1 renal,48 µM
same,TGI,CCRF-CEM leukemia,53 µM
same,TGI,COLO 205 colon,30.2 µM
same,TGI,DLD-1 colon,32.1 µM
same,TGI,DMS 273 small cell lung,30.1 µM
same,TGI,EKVX NSCLC,73.2 µM
same,TGI,HCC-2998 colon,37.9 µM
same,TGI,HCT-116 colon,27.9 µM
same,TGI,HCT-15 colon,29 µM
same,TGI,HL-60(TB) leukemia,50.1 µM
same,TGI,HOP-18 NSCLC,42.4 µM
same,TGI,HOP-62 NSCLC,34.7 µM
same,TGI,HOP-92 NSCLC,41.9 µM
same,TGI,HT29 colon,34.3 µM
same,TGI,IGROV1 ovarian,46.2 µM
same,TGI,K-562 leukemia,48 µM
same,TGI,KM12 colon,54.1 µM
same,TGI,KM20L2 colon,32.9 µM
same,TGI,LOX IMVI melanoma,34 µM
same,TGI,LXFL 529 NSCLC,33.6 µM
same,TGI,M14 melanoma,33.2 µM
same,TGI,MALME-3M melanoma,75.4 µM
same,TGI,MOLT-4 leukemia,85.7 µM
same,TGI,NCI-H226 lung,42.6 µM
same,TGI,NCI-H23 lung,38.9 µM
same,TGI,NCI-H460 lung,29.2 µM
same,TGI,NCI-H522 lung,27.3 µM
same,TGI,OVCAR-3 ovarian,31 µM
same,TGI,OVCAR-5 ovarian,46 µM
same,TGI,OVCAR-8 ovarian,37.9 µM
same,TGI,RPMI-8226 leukemia,57 µM
same,TGI,RXF 393 renal,23.9 µM
same,TGI,SF-268 CNS,31.3 µM
same,TGI,SF-295 CNS,33.9 µM
same,TGI,SF-539 CNS,32.3 µM
same,TGI,SK-MEL-2 melanoma,34.2 µM
same,TGI,SK-MEL-28 melanoma,45.7 µM
same,TGI,SK-MEL-5 melanoma,27.5 µM
same,TGI,SK-OV-3 ovarian,43.5 µM
same,TGI,SN12C renal,35 µM
same,TGI,SNB-19 CNS,78.1 µM
same,TGI,SNB-75 CNS,54.6 µM
same,TGI,SNB-78 CNS,94.6 µM
same,TGI,SR leukemia,54.1 µM
same,TGI,SW-620 colon,28.3 µM
same,TGI,TK-10 renal,69.1 µM
same,TGI,U251 CNS,26.8 µM
same,TGI,UACC-257 melanoma,42.1 µM
same,TGI,UACC-62 melanoma,24.7 µM
same,TGI,UO-31 renal,28.2 µM
